Reference: patent US20250288570A1, “TREATMENT OF NEUROLOGICAL DISORDERS” (Praxis Precision Medicines, Inc., priority 2022, published 2025)
Entries after “also recorded” stand apart in the source; their conditions may differ.

How the values were obtained:
human Nav1.6 [1] = biological target: T1, human Nav1.6 (Homo sapiens, UniProt Q9UQD0); test: Peak INa tonic block (TB), automated patch clamp in HEK cells; type: cell-based; details: ratio of peak INa (TB) to persistent INa IC50
T1 construct: HEK-293 cell lines stably expressing human Nav1.6 (NP_055006) were used; expressed in transfected cells
T1 sequence (Q9UQD0 whole entry): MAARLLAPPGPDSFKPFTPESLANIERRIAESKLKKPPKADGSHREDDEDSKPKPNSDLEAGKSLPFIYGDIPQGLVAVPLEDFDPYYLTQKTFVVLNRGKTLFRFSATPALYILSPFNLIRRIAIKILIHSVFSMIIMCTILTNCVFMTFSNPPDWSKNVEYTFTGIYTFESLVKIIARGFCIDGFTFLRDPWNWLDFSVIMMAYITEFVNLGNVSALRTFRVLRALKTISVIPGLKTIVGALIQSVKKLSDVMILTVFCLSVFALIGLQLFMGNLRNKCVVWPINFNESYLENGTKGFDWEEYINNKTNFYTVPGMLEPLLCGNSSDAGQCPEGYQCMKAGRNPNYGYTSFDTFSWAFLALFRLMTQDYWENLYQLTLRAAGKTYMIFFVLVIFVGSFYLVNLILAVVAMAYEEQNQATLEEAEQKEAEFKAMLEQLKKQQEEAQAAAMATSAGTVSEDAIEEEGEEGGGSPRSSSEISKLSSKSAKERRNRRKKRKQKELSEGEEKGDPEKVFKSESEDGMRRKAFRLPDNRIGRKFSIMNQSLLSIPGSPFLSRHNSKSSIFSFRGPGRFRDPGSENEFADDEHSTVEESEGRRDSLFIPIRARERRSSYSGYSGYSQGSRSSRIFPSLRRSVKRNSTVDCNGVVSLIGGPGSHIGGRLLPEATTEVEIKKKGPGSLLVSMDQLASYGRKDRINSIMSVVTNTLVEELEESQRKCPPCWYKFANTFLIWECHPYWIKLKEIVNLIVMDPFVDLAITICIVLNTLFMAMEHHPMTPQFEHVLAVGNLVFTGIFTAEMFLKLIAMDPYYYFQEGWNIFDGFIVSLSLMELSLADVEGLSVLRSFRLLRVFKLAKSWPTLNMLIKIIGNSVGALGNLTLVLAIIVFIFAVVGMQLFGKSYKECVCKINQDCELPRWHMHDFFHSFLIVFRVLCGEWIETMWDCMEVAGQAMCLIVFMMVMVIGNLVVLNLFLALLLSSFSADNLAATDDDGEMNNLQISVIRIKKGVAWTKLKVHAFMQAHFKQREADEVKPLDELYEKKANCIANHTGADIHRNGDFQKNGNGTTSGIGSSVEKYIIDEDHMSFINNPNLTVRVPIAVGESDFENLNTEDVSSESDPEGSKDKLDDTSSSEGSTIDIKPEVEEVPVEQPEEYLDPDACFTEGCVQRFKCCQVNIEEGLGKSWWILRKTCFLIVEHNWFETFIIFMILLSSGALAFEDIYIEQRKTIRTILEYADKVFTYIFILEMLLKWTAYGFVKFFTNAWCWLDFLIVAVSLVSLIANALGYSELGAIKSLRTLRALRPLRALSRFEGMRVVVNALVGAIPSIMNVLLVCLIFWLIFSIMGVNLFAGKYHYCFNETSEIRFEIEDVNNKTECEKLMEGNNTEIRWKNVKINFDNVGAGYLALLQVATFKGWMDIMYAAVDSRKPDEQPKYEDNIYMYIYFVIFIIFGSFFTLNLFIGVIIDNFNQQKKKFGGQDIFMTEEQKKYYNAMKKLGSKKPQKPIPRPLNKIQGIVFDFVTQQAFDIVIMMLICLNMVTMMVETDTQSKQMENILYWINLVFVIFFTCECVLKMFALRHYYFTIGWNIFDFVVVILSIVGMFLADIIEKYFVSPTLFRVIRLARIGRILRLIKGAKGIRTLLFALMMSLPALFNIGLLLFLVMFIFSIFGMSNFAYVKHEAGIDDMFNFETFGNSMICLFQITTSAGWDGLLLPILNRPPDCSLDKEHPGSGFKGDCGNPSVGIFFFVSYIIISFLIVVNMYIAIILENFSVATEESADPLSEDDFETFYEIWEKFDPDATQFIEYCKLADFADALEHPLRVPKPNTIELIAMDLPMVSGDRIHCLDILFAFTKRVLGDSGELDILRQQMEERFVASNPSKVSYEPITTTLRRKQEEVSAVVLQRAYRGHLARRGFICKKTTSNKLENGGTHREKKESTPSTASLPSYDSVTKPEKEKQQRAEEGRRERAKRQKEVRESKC

human Nav1.6 [2] = biological target: T1, human Nav1.6; test: ATX-II activated late (persistent) INa block, automated patch clamp in HEK cells; type: cell-based
[3] = system: psychomotor seizures induced by 6-Hz electrical stimulation in CD-1 mice; test: 6-Hz psychomotor seizure model (32 and 44 mA); type: in vivo, mouse
Description: The 6-Hz test is a validated model of focal seizures for evaluating the anti-seizure potential of compounds. The 6-Hz seizure model can be performed at different stimulation intensities (32 or 44 mA), with the higher intensity (44 mA) used as a model of pharmacoresistant seizures. The positive control valproate is an approved anti-seizure medicine (ASM).
This study evaluated the efficacy of Compound 1 in attenuating psychomotor seizures induced by 6-Hz electrical stimulation at two different stimulation intensities (32 and 44 mA) in wild-type CD-1 mice. Psychomotor seizures are defined as the expression of at least one of the following behaviors: stun/immobility, forelimb clonus, straub tail or lateral head movement within 30 seconds of the stimulus. Protection is defined as a complete absence of the above behaviors within 30 seconds of the stimulus. Doses of Compound 1 used were 1 mg/kg, 3 mg/kg and 6 mg/kg administered orally. Valproate (600 mg/kg, administered intraperitoneally) was used as a positive control.
Male CD-1 mice (Charles River Laboratories; St. Constant, Quebec, CAN) were used for the study. Body weights at the time the experiment was carried out were 30-40 grams. The mice were group-housed in polycarbonate cages according to standard operating procedures. Animals were maintained on a 12-hour light/12 hour dark cycle, with all experimental activities occurring during the light phase. Food and water were available ad libitum. Mice acclimated to the test facility for at least 72 hours prior to testing.
Treatment was conducted using Compound 1 and 35% 2-hydroxypropyl-β-cyclodextrin (35% HPBCD, used as a negative control). Compound 1 stock solution was prepared fresh each experiment day in 35% HPBCD. […] Valproate was prepared fresh each experiment day in a vehicle of saline and dosed at 10 mL/kg.
Mice were administered vehicle (35% HPBCD), a single dose of Compound 1 (1 mg/kg, 3 mg/kg or 6 mg/kg) or valproate (600 mg/kg). Vehicle and Compound 1 were administered via oral gavage 30 minutes prior to […]. Valproate was administered as an intraperitoneal injection 60 minutes prior to the electrical stimulus.
Immediately prior to conducting the 6-Hz seizure test, a brief neurological assessment was performed. Each animal was visually assessed and received a score from 0 to 3 according to the following scoring system: neurological score of 0 corresponds to a normal status; neurological score of 1 corresponds to a modest decrease in spontaneous activity; neurological score of 2 corresponds to a marked decrease in spontaneous activity; and neurological score of 3 corresponds to loss of righting reflex.
Corneal electrodes moistened with saline (ECT unit 57800; Ugo Basile) were used to deliver the electrical stimulus (6-Hz, 0.2 millisecond pulse width, 3 seconds duration). The current delivered was either 32 mA or 44 mA. Immediately after the electrical stimulus, each mouse was monitored continuously for 30 seconds by an observer blinded to the treatment group. […] Mice were scored for the presence or absence of each seizure behavior, with a maximum total score of 4. […] At the end of the 6-Hz seizure test, plasma and brain samples were collected.
Mice were anesthetized with isoflurane, whole blood was collected via cardiac puncture and brains were harvested. […] Plasma and brain samples were stored at −80° C. and analyzed to determine levels of Compound 1. […]

[4] = system: locomotor activity of male CD-1 mice; test: Spontaneous locomotor activity (sLMA) test, Example 8; type: in vivo, mouse
Procedure: The spontaneous locomotor activity (sLMA) test is a validated model for evaluating the potential effects of a compound on motor function. This study evaluated the effect of Compound 1 on locomotor activity of male CD-1 mice. Doses of Compound 1 used were 3 mg/kg, 5.6 mg/kg, 10 mg/kg and 20 mg/kg administered orally (p.o.).
Male CD-1 mice (Vital River, Beijing, China) approximately 6 weeks old were used for the study. Body weights were between 25 g and 35 g at the time of experiment.
Treatment was conducted using Compound 1 and 35% 2-hydroxypropyl-β-cyclodextrin (35% HPBCD, used as a negative control). Compound 1 stock solution was prepared fresh each experiment day in 35% HPBCD and protected from light. The stock solution was diluted with vehicle for lower doses.
The spontaneous locomotor activity (sLMA) test for each study was carried out over three days, with mice from each treatment group tested each day. The treatment groups included mice dosed with vehicle (35% HPBCD) and with Compound 1 at the dose of 3 mg/kg, 5.6 mg/kg, 10 mg/kg and 20 mg/kg. Mice were randomly assigned into one of the treatment groups.
A single dose of Compound 1 (3 mg/kg, 5.6 mg/kg, 10 mg/kg and 20 mg/kg) or vehicle (35% HPBCD) was administered to mice via oral gavage 30 minutes prior to testing. Immediately prior to conducting the sLMA test, a brief neurological assessment was performed. Each animal was visually assessed for sedation and ataxia.
Activity was recorded by overhead cameras and was analyzed offline. Video tracking analysis software was used to determine total distance travelled in millimeters. Distance travelled was also calculated in 5-minute bins.
All statistical analyses were conducted using GraphPad Prism 9.3. Means were combined and standard error was calculated using the Satterthwaite Approximation to combined standard deviations. […] TD50 and TC50 values were calculated from these fit curves.

CCOC(F)(F)c1nnc2ccc(-c3cnc(OCC(F)(F)F)c(F)c3)cn12 [Compound 1]
Peak INa TB Ratio to Pers. INa (human Nav1.6 [1]): 68 | persistent INa preference to TB (human Nav1.6 [2]): 68 × | potency for persistent INa relative to the other tested INa blocking agents (human Nav1.6 [2]): at least 550 × | inhibition of and preference for persistent INa (in words) (human Nav1.6 [2]; hNav1.6): concentration dependent inhibition of late sodium current; also recorded: preference for persistent INa relative to peak INa for all assay conditions; also recorded: potently inhibited ATX-II-induced persistent INa; also recorded: potent inhibition of persistent INa; also recorded: potent inhibitor of persistent INa; also recorded: increased potency for persistent INa relative to standard NaV-targeting ASMs | Persistent INa Hill slope (human Nav1.6 [2]; hNav1.6 in HEK cells): (1.4) | seizure score (in words) ([3]; 6 mg/kg p.o., 32 and 44 mA): significantly reduced the seizure score; also recorded: reduced seizure scores compared to vehicle | incidence of seizures (in words) ([3]; 6 mg/kg p.o., 32 mA): significantly reduced the incidence of seizures | neurological scores ([3]; any dose of Compound 1 (1, 3, 6 mg/kg)): all neurological scores were zero; also recorded: normal | sedation or ataxia (in words) ([4]; 3 mg/kg and 5.6 mg/kg): No sedation or ataxia was observed | mice with sedation and/or ataxia ([4]; 10 mg/kg): five | mice with sedation and/or ataxia ([4]; 20 mg/kg): eight | sLMA TD50 ([4]; p.o., distance travelled): 10.4 mg/kg
